Data set [1] can be described thus: In vivo test: pharmacokinetics in the rat. As to the method: To determine oral availability (F); and plasma half life (t1/2) of test compounds of this invention experiments performed in the rat were undertaken. On day one rats were implanted with one catheter in the jugular vein and one catheter in the carotid artery under ketamine anesthesia. On day three test compound is injected the either orally or in the jugular vein catheter. Blood samples are collected during 8 hours from the arterial catheter. The blood samples were heparinized and centrifuged. Plasma is collected from the centrifuged samples and frozen. The levels of test compound were subsequently determined in each sample by means of gas chromatography mass spectrometry (Hewlett-Packard 5972MSD). […]

The test system of data set [2] is spontaneous behavior (locomotor activity). Briefly: In vivo test: behavior, spontaneous locomotor activity in non-habituated/nonpretreated rats. Conditions: rat; for locomotor activity in nonpretreated rats: 100 μmol/kg s.c., 30-60 min.
Data set [3] deals with 3,4-dihydroxyphenyl-acetic acid (DOPAC) in the striatum. Nature of the data set: In vivo test: neurochemistry, 3,4-dihydroxyphenyl-acetic acid in the striatum. The conditions noted are these: rat, n=4. The text has this:
After the behavioral activity sessions the rats were decapitated and their brains rapidly taken out and put on an ice-cold petri-dish. The limbic forebrain, the striatum, the frontal cortex and the remaining hemispheral parts of each rat were dissected and frozen. Each brain part was subsequently analyzed with respect to its content of monoamines and their metabolites. The monoaminergic indices analyzed were dopamine (DA), 3,4-dihydroxyphenyl-acetic acid (DOPAC), homovanillic acid (HVA), 3-methoxytyramine (3-MT), serotonin (5-HT), 5-hydroxyindole acetic acid (5-HIAA), and noradrenaline (NA). All monoaminergic indices in the dissected tissue were analyzed by means of HPLC with electrochemical detection as described by Svensson K, et al., 1986, Naunyn-Schmiedeberg's Arch Pharmacol 334: 234-245 and references cited therein.

Data set [4] deals with d-amphetamine induced hyperactivity. Nature of the data set: In vivo test: behavior, d-amphetamine induced hyperactivity. The conditions noted are these: rat, d-amphetamine pretreated, n=4.
In data set [5] the test system is locomotor activity of habituated rats. Briefly: In vivo test: behavior, locomotor activity of habituated rats.

From patent USRE41315E1, “Modulators of dopamine neurotransmission” (NSAB, Filial af NeuroSearch Sweden AB, priority 1999, dated 2010) come the findings set out here.

Where a name gives a salt, the structure may show the parent alone.

As a reminder, the melting point is the temperature, or range, at which the solid turns liquid. Compound `CCCN1CCN(c2ccc(Cl)c(C(F)(F)F)c2)CC1` (as salt: HCl) returned a melting point of 268 °C.
`CCCN1CCN(c2cc(C(F)(F)F)ccc2Cl)CC1` (as salt: HCl) registered a melting point of 234 °C.
Still for that read-out and setting: next, `CCCN1CCN(c2ccc(F)c(C(F)(F)F)c2)CC1` (as salt: HCl): 238 °C; `CCCN1CCN(c2cc(F)cc(C(F)(F)F)c2)CC1` (as salt: HCl): 242 °C; `CCCN1CCC(c2ccc(Cl)c(C(F)(F)F)c2)CC1` (as salt: HCl) [Example 9, 4-(4-Chloro-3-trifluoromethyl-phenyl)-1-propyl-piperidine]: 218 to 220 °C.
Still for that read-out and setting: for `CCCN1CCN(c2ccc(Cl)c([N+](=O)[O-])c2)CC1` (as salt: HCl) [Example 19, 1-(4-Chloro-3-nitro-phenyl)-4-propyl-piperazine] the value was 249 °C; for `CCCN1[C@H](C)CN(c2ccc(Cl)c(C(F)(F)F)c2)C[C@@H]1C` (as salt: HCl) [Example 33, cis-4-(4-Chloro-3-trifluoromethyl-phenyl)-2,6-dimethyl-1-propyl-piperazine], 256 °C; for `CCCN1[C@H](C)CN(c2ccc(F)c(C(F)(F)F)c2)C[C@@H]1C` (as salt: HCl) [Example 34, cis-4-(4-Fluoro-3-trifluoromethyl-phenyl)-2,6-dimethyl-1-propyl-piperazine], 221 °C.
Still for that read-out and setting: next, `CCCN1[C@H](C)CN(c2ccc(Cl)c(Cl)c2)C[C@@H]1C` (as salt: HCl) [Example 35, cis-4-(3,4-dichloro-phenyl)-2,6-dimethyl-1-propyl-piperazine]: 225 °C; `CCCN1CCC(c2ccc(F)c(C(F)(F)F)c2)CC1` (as salt: HCl) [Example 43, 4-(4-Fluoro-3-trifluoromethylphenyl)-1-propyl-piperidine]: 195 to 197 °C.
Consider `CCCN1CCC(c2cc(F)cc(C(F)(F)F)c2)CC1` (as salt: HCl) [Example 44, 4-(3-Fluoro-5-trifluoromethylphenyl)-1-propyl-piperidine], for which the melting point was determined as 215 °C.
On to `CCCN1CCN(c2cccc(C(F)(F)F)c2)CC1` [1-propyl-4-(3-trifluoromethyl-phenyl)-piperazine, reference compound], for which the “oral availability (F)” value in data set [1] is given as 9,5%. Also, the “behavioral inhibition (locomotor activity)” value in data set [2] (50 μmol/kg s.c., n=4) worked out at 271±137 cm/60 min. In data set [3] (50 μmol/kg s.c.), the “3,4-dihydroxyphenyl-acetic acid in the striatum” value (“3,4-dihydroxyphenyl-acetic acid” below) is given as 3358±162 ng/g tissue.
In the case of `CCCN1CCC(c2ccc(Cl)c(C(F)(F)F)c2)CC1` [Example 9, 4-(4-Chloro-3-trifluoromethyl-phenyl)-1-propyl-piperidine], in data set [4] (50 μmol/kg s.c.), the d-amphetamine induced hyperactivity is 3399±1247 cm/30 min. The “oral availability (F)” value in data set [1] is listed as 55%. For the same compound, in data set [2] (50 μmol/kg s.c.), the “spontaneous behavior (distance traveled)” value was determined as 944±114 cm/30 min. In addition, the “locomotor activity of habituated rats” value in data set [5] (habituated rats, 50 μmol/kg s.c.) is 1300±761 cm/60 min. Further, the “3,4-dihydroxyphenyl-acetic acid” value in data set [3] (50 μmol/kg s.c.) is 1680±136 ng/g tissue.
As for `CCCN1CCN(c2ccc(Cl)c([N+](=O)[O-])c2)CC1` [Example 19, 1-(4-Chloro-3-nitro-phenyl)-4-propyl-piperazine], the d-amphetamine induced hyperactivity in data set [4] (100 μmol/kg s.c.) is on record as 3767±2332 cm/60 min. The “locomotor activity in nonpretreated rats” value in data set [2] (n=4) is given as 266±89 cm/30 min. The “3,4-dihydroxyphenyl-acetic acid” value in data set [3] (100 μmol/kg s.c.) came out at 1693±104 ng/g tissue.
Take `CCCN1[C@H](C)CN(c2ccc(F)c(C(F)(F)F)c2)C[C@@H]1C` [Example 34, cis-4-(4-Fluoro-3-trifluoromethyl-phenyl)-2,6-dimethyl-1-propyl-piperazine]: in data set [5] (habituated rat, 33 μmol/kg s.c., n=4), the “spontaneous behavior in the habituated rat” value was 919±143 cm/60 min. For the same compound, the “3,4-dihydroxyphenyl-acetic acid” value in data set [3] (33 μmol/kg s.c.) came to 1278±143 ng/g tissue.
For the compound `CCCN1[C@H](C)CN(c2ccc(Cl)c(Cl)c2)C[C@@H]1C` [Example 35, cis-4-(3,4-dichloro-phenyl)-2,6-dimethyl-1-propyl-piperazine], the d-amphetamine induced hyperactivity in data set [4] (100 μmol/kg s.c.) came out at 6514±3374 cm/60 min.
For the compound `CCCN1CCC(c2ccc(F)c(C(F)(F)F)c2)CC1` [Example 43, 4-(4-Fluoro-3-trifluoromethylphenyl)-1-propyl-piperidine], the “locomotor activity in nonpretreated rats” value in data set [2] (n=4) was 540±128 cm/30 min. Moreover, the “3,4-dihydroxyphenyl-acetic acid” value in data set [3] (100 μmol/kg s.c.) is 1895±100 ng/g tissue.
